Like-named read-outs stand apart in the source and are kept apart here.
Tests used:
human EHMT2 913-1193 = biological target: T1, human EHMT2 913-1193 (Homo sapiens, UniProt Q96KQ7); experiment: EHMT2 enzyme assay on histone peptide substrate (EHMT2 PEP); assay type: biochemical; details: Table II; read-out: EHMT2 PEP (IC50 μM)
T1 construct: recombinant purified human EHMT2 913-1193, Viva; purchased Viva
T1 sequence (Q96KQ7 913-1193): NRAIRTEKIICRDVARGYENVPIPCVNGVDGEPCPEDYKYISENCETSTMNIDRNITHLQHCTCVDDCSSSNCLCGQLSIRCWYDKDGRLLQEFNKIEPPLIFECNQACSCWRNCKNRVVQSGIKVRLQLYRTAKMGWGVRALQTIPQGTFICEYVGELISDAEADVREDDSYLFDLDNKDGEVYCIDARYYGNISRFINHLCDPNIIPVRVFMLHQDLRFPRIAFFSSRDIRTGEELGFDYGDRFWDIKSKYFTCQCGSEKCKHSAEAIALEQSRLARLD
Method in brief: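 Compounds were tested as 3-fold dilutions, 10 points from a 50 μM final top (2% DMSO), after 30-min preincubation with 0.031 nM enzyme in Bicine buffer pH 7.5. Transfer of ^3H-methyl from ^3H-SAM to biotinylated histone peptide ran 60 min at room temperature and was detected by streptavidin Flashplate scintillation.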

EHMT1 = biological target: T2, EHMT1 (Homo sapiens, UniProt Q9H9B1); experiment: EHMT1 enzyme assay on peptide substrate (EHMT1 PEP); assay type: biochemical; details: Table II
T2 sequence (Q9H9B1 1-1298): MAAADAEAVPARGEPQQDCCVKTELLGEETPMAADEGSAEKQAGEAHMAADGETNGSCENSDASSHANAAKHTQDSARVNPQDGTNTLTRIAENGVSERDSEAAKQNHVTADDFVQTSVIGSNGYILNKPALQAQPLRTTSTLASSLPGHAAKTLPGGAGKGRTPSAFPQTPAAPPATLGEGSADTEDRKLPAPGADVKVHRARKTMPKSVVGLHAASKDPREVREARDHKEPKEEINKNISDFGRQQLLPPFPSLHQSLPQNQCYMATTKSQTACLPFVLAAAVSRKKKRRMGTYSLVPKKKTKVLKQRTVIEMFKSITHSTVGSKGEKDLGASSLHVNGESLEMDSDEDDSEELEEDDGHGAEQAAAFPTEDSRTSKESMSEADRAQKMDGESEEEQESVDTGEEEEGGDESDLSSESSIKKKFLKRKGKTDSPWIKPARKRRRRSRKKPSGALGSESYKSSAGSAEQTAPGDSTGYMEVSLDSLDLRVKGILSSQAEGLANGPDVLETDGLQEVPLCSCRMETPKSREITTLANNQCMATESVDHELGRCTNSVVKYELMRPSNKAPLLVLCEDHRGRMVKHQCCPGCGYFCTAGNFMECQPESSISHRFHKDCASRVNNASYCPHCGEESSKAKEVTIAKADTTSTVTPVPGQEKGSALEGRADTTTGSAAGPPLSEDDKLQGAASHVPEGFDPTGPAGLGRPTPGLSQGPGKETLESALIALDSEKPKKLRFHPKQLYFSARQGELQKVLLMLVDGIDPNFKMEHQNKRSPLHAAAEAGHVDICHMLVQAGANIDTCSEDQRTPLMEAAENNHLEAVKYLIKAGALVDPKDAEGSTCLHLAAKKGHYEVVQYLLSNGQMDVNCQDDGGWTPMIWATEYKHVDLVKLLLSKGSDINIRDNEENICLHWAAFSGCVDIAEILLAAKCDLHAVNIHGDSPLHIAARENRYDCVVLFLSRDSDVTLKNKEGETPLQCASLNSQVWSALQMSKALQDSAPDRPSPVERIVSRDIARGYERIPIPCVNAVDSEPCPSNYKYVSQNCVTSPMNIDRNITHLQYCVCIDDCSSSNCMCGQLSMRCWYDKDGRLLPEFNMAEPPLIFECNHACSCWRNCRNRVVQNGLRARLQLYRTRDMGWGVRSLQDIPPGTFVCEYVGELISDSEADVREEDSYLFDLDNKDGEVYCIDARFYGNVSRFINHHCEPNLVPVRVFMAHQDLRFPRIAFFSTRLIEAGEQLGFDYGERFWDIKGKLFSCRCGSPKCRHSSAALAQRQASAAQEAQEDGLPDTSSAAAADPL

| IC50 (human EHMT2 913-1193) [µM] | IC50 (EHMT1; read-out: EHMT1 PEP (IC50 μM)) [µM] | IC50 (EHMT1; EHMT1 PEP (IC50 μM)) [µM] | Compound |
| --- | --- | --- | --- |
| 1 to 10 | 1 to 10 |  | CNc1cncc(Nc2ccc(OC)c(OCCCN3CCCC3)c2)n1 [Compound 247] |
| > 10 | > 10 |  | COc1ccc(Nc2ccc3cnn(C)c3c2)cc1OCCCN1CCCC1 [Compound 217] |
| < 0.1 | < 0.1 |  | CNc1cc(Nc2cc(OCCCN3CCCC3)c(OC)cn2)ccn1 [Compound 248] |
| 1 to 10 | 1 to 10 |  | CNc1ccnc(Nc2cccc(OC[C@H](O)CN3CCCC3)c2)n1 [Compound 252] |
| > 10 | > 10 |  | CNc1nc(Nc2ccc(OC)c(OCCCN3CCCC3)c2)ncc1C#N [Compound 233] |
| 1 to 10 | 1 to 10 |  | COc1ccc(Nc2ccc3ncc(C)n3n2)cc1OCCCN1CCCC1 [Compound 223] |
| > 10 | > 10 |  | COc1ccc(Nc2cccc3cn(C)nc23)cc1OCCCN1CCCC1 [Compound 222] |
| 1 to 10 | 1 to 10 |  | COc1ccc(Nc2cnnc(NCC3CCN(C(C)=O)CC3)c2)cc1OCCCN1CCCC1 [Compound 242] |
| > 10 | > 10 |  | COc1ccc(Nc2nccc(NCC3CCOCC3)n2)cc1OC1CC2(C1)CN(C)C2 [Compound 243] |
| > 10 | > 10 |  | COc1ccc(Nc2nccc3[nH]ncc23)cc1OCCCN1CCCC1 [Compound 249] |
| 1 to 10 | 1 to 10 |  | CNc1ccnc(Nc2ccc(OC)c(OCCN3CCOCC3)c2)n1 [Compound 237] |
| 0.1 to 1 | 0.1 to 1 |  | CNc1cnnc(Nc2ccc(OC)c(OCCCN3CCCC3)c2)c1 [Compound 246] |
| > 10 | > 10 |  | COc1ccc(Nc2ncc3ncn(C)c3n2)cc1OCCCN1CCCC1 [Compound 219] |
| > 10 | > 10 |  | CNc1ccnc(Nc2cccc(OC[C@@H](O)CN3CCCC3)c2)n1 [Compound 253] |
| > 10 | > 10 |  | CC(C)Nc1ccnc(Nc2cccc(OCCCN3CC[C@@H](F)C3)c2)n1 [Compound 251] |
| > 10 | > 10 |  | CNc1ccnc(Nc2ccc(F)c(OCCCN3CCCC3)c2)n1 [Compound 244] |
| > 10 | > 10 |  | CNc1cc(C)nc(Nc2ccc(F)c(OCCCN3CCCC3)c2)n1 [Compound 232] |
| 1 to 10 | 1 to 10 |  | CNc1ccnc(Nc2ccc(OC)c(OCCCN3CC(F)C3)c2)n1 [Compound 230] |
| > 10 | > 10 |  | CNc1ccnc(Nc2ccc3c(c2)N(C(=O)CCN(C)C)CC3)n1 [Compound 239] |
| 1 to 10 | 1 to 10 |  | COc1ccc(Nc2nccc(Nc3cccc(F)c3)n2)cc1OCCCN1CCCC1 [Compound 225] |
| > 10 | > 10 |  | COc1ccc(Nc2ccc3nn(C)cc3c2)cc1OCCCN1CCCC1 [Compound 221] |
| < 0.1 | < 0.1 |  | CCc1cc(NC)nc(Nc2ccc(OC)c(OCCCN3CCCC3)c2)n1 [Compound 240] |
| 0.1 to 1 | 0.1 to 1 |  | CNc1ccnc(Nc2ccc(OC)c(OCCCN3CC[C@@H](F)C3)c2)n1 [Compound 229] |

The remaining lines, values behind:

| Compound | IC50 (human EHMT2 913-1193) [µM] | IC50 (EHMT1; read-out: EHMT1 PEP (IC50 μM)) [µM] | IC50 (EHMT1; EHMT1 PEP (IC50 μM)) [µM] |
| --- | --- | --- | --- |
| COc1ccc(Nc2nccc(NCC3(O)CCCCC3)n2)cc1OCCCN1CCCC1 [Compound 45] | 0.1 to 1 | 0.1 to 1 |  |
| CNC(=O)CNc1ccnc(Nc2ccc(OC)c(OCCCN3CCCC3)c2)n1 [Compound 41] | 0.1 to 1 | 0.1 to 1 |  |
| COc1ccc(Nc2nccc(NCC3CCNCC3)n2)cc1OCCCN1CCOCC1 [Compound 16, N^2-(4-methoxy-3-(3-morpholinopropoxy)phenyl)-N^4-(piperidin-4-ylmethyl)pyrimidine-2,4-diamine] | 0.1 to 1 | 0.1 to 1 |  |
| COc1ccc(Nc2nccc(NCc3ccccn3)n2)cc1OCCCN1CCCC1 [Compound 23] | 0.1 to 1 | 0.1 to 1 |  |
| COc1ccc(Nc2nccc(NCCCN(C)C(C)=O)n2)cc1OCCCN1CCCC1 [Compound 44] | 0.1 to 1 | 0.1 to 1 |  |
| COc1ccc(Nc2nccc(NCc3ccccc3)n2)cc1OCCCN1CCCC1 [Compound 21] | < 0.1 | 0.1 to 1 |  |
| COc1ccc(Nc2nccc(NCc3ccncc3)n2)cc1OCCCN1CCCC1 [Compound 24] | < 0.1 | < 0.1 |  |
| COc1ccc(Nc2nccc(NCCOc3ccccc3)n2)cc1OCCCN1CCCC1 [Compound 40] | 0.1 to 1 | 0.1 to 1 |  |
| COc1ccc(Nc2nccc(NCC3CCCC3)n2)cc1OCCCN1CCCC1 [Compound 34] | < 0.1 | 0.1 to 1 |  |
| COCCNc1ccnc(Nc2ccc(OC)c(OCCCN3CCCC3)c2)n1 [Compound 27] | 0.1 to 1 | 0.1 to 1 |  |
| CNc1ccnc(Nc2cccc(OCCCN3CCCC3)c2)n1 [Compound 207, N^4-methyl-N^2-(3-(3-(pyrrolidin-1-yl)propoxy)phenyl)pyrimidine-2,4-diamine] | 1 to 10 | 1 to 10 |  |
| COc1ccc(Nc2nccc(NCCc3ccncc3)n2)cc1OCCCN1CCCC1 [Compound 39] | < 0.1 | < 0.1 |  |
| COc1ccc(Nc2ccnc(NCC3CCN(C(C)=O)CC3)n2)cc1OCCCN1CCCC1 [Compound 216] | 0.1 to 1 | 0.1 to 1 |  |
| COc1ccc(Nc2nccc(NCc3cccnc3)n2)cc1OCCCN1CCCC1 [Compound 25] | < 0.1 | < 0.1 |  |
| COc1ccc(CNc2ccnc(Nc3ccc(OC)c(OCCCN4CCCC4)c3)n2)cc1 [Compound 28] | < 0.1 | < 0.1 |  |
| COc1ccc(Nc2nccc(NCC3(O)CCOCC3)n2)cc1OCCCN1CCCC1 [Compound 49] | 0.1 to 1 | 0.1 to 1 |  |
| COc1ccc(Nc2nccc(NCC(C)(C)O)n2)cc1OCCCN1CCCC1 [Compound 42] | 0.1 to 1 | 0.1 to 1 |  |
| COc1ccccc1CNc1ccnc(Nc2ccc(OC)c(OCCCN3CCCC3)c2)n1 [Compound 36] | < 0.1 | 0.1 to 1 |  |
| CNc1cc(C)nc(Nc2ccc(OC)c(OCCCN3CCCC3)c2)n1 [Compound 205, N^2-(4-methoxy-3-(3-(pyrrolidin-1-yl)propoxy)phenyl)-N^4,6-dimethylpyrimidine-2,4-diamine] | < 0.1 |  | < 0.1 |
| COc1ccc(Nc2nccc(NCCc3cccnc3)n2)cc1OCCCN1CCCC1 [Compound 37] | 0.1 to 1 | 0.1 to 1 |  |
| COc1ccc(Nc2nccc(NC(C)C)n2)cc1OCCCN1CCCC1 [Compound 20] | < 0.1 | 0.1 to 1 |  |
| CNc1cc(Nc2ccc(OC)c(OCCCN3CCCC3)c2)ccn1 [Compound 206] | 0.1 to 1 | 0.1 to 1 |  |
| CNCc1cnc(Nc2ccc(OC)c(OCCCN3CCCC3)c2)nc1 [Compound 215] | > 10 | > 10 |  |
| COc1ccc(Nc2nccc(NCc3nc4ccccc4[nH]3)n2)cc1OCCCN1CCCC1 [Compound 31] | 0.1 to 1 | 0.1 to 1 |  |
| COc1ccc(Nc2nccc(NCC3CCNCC3)n2)cc1CCNCC1CCCC1 [Compound 17, N^2-(3-(2-((cyclopentylmethyl)amino)ethyl)-4-methoxyphenyl)-N^4-(piperidin-4-ylmethyl)pyrimidine-2,4-diamine] | 0.1 to 1 | 0.1 to 1 |  |
| COc1ccc(Nc2nccc(NCC3CCN(C(C)C)CC3)n2)cc1OCCCN1CCCC1 [Compound 29] | < 0.1 | < 0.1 |  |
